Read-outs that look alike come from different tables or passages of the source.
Experiments:
786-0 cells = assay: VEGF ELISA Assay; type: cell-based
Protocol: Each concentration had duplicated wells. About 20 hours later, medium was removed by suction and each well was supplied with 180 μL of growth medium. About 20 μl freshly-made 10× compound stocks were added to each well. […] The EC50 was calculated by GraphPad Prism using the dose-response-inhibition (four parameter) equation. The cell seeded plate was then subjected to CellTiter-Glo luminescence cell viability assay (Promega) by adding 50 μL of Celltiter Glo reagent into each well and shaking the plate for 8 minutes at 550 rpm (Thermomixer R, Eppendorf) then read luminescence signal in plate reader (3 second delay, 0.5 second/well integration time, Synergy 2 multi Detection Microplate reader) immediately.

786-O-Hif-Luc cells = assay: Luciferase Assay; type: cell-based; settings: read-out: Luciferase EC50
Protocol: A pool of infected cells were then selected against 2 μg/mL of puromycin (P8833, Sigma) for 10 days followed by limited dilution to select single clones.
Each concentration was tested in triplicate. After about 24 hours, luciferase activity was determined using ONE-Glo Luciferase Assay Reagent (E6110, Promega) following the manufacturer's recommended procedure. EC50 were calculated by using Dotmatics software.

[1] = molecular target: T1, HIF-2α HIS TAG-PASB Domain (Homo sapiens, UniProt Q99814); assay: HIF-2α Scintillation Proximity Assay (SPA); type: binding; settings: 100 nM HIF-2α HIS TAG-PASB Domain
T1 construct: 100 nM HIF-2α HIS TAG-PASB Domain
T1 sequence (Q99814 240-350 limits assumed): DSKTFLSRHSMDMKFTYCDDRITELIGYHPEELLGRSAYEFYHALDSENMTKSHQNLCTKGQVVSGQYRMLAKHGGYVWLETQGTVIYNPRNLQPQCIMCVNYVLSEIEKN
How it was run: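 IC50 values rest on percent inhibition, where the sample signal is scaled between high and low controls. Wells contain about 100 μL: compound dispensed as 2 μL of DMSO solution, 88 μL protein-probe mix and 10 μL of beads.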

[2] = Homo sapiens, 786-0, read-out: VEGF ELISA EC50
[3] = 150 nM Compound 211 probe, read-out: SPA IC50
[4] = 786-0 cells, VEGFA concentration in cell culture medium, read-out: VEGF ELISA EC50
[5] = 786-O-Hif-Luc cells, about 24 hours
[6] = SPA IC50, 150 nM Compound 211 probe
[7] = 24 h, 786-O-Hif-Luc cells, about 24 hours
[8] = Homo sapiens, 786-0, 786-0 cells, VEGFA concentration in cell culture medium, read-out: VEGF ELISA EC50

Question: How did the EC50 (786-0 cells; [2]) turn out when `N#Cc1cc(F)cc(Oc2ccc(S(N)(=O)=O)c3c2[C@@H](F)C(F)(F)[C@H]3O)c1` [Compound 102, (1R,3S)-7-(3-cyano-5-fluoro-phenoxy)-1,2,2-trifluoro-3-hydroxy-indane-4-sulfonamide] was run?
Answer: 11 nM

Question: And the EC50 (786-O-Hif-Luc cells; 24 h)?
Answer: 6 nM

Question: Which EC50 (786-0 cells; [2]) does the source give for `O=S(=O)(c1ccc(Oc2cc(F)cc(Cl)c2)c2c1[C@H](O)CC2)C(F)F` [Compound 2, (R)-4-(3-chloro-5-fluorophenoxy)-7-((difluoromethyl)sulfonyl)-2,3-dihydro-1H-inden-1-ol] here?
Answer: 245 nM

Question: Which results are given for `N#Cc1cc(F)cc(Oc2ccc(S(=N)(=O)C(F)(F)F)c3c2CC(F)(F)[C@H]3O)c1` (single isomer, unassigned) [Compound 70]?
Answer: IC50 [1, 3]: < 5 nM; EC50 (786-0 cells; [4]): 19 nM

Question: With `O=S1(=O)c2ccc(Oc3cc(F)cc(Cl)c3)c(Br)c2C(O)C1(F)F` (centres unmarked) [Compound 119, 4-Bromo-5-(3-chloro-5-fluorophenoxy)-2,2-difluoro-3-hydroxy-2,3-dihydrobenzo[b]thiophene 1,1-dioxide] as the compound, how does the EC50 (786-0 cells; Homo sapiens, 786-0 cells, VEGFA concentration in cell culture medium, read-out: VEGF ELISA EC50) read?
Answer: 64 nM

Question: What about the EC50 (786-O-Hif-Luc cells; [5]) of the same compound?
Answer: 46 nM

Question: What does the source list for `N#Cc1c(Oc2cc(F)cc(Cl)c2)ccc2c1C(O)C(F)(F)S2(=O)=O` (centres unmarked) [Compound 120, 5-(3-chloro-5-fluorophenoxy)-2,2-difluoro-3-hydroxy-2,3-dihydrobenzo[b]thiophene-4-carbonitrile 1,1-dioxide]?
Answer: IC50 [1, 6]: 45 nM; EC50 (786-O-Hif-Luc cells): 4170 nM

Question: Which IC50 [1, 3] does the source give for `O=S1(=O)c2ccc(Oc3cncc(Cl)c3)c(Cl)c2[C@@H](O)C1(F)F` [Compound 196, (R)-4-Chloro-5-((5-chloropyridin-3-yl)oxy)-2,2-difluoro-3-hydroxy-2,3-dihydrobenzo[b]thiophene 1,1-dioxide] here?
Answer: 384 nM

Question: And the EC50 (786-O-Hif-Luc cells; [7])?
Answer: 425 nM

Question: How did the IC50 [1, 3] turn out when `O=S1(=O)c2ccc(Oc3cncc(F)c3)c(Br)c2[C@@H](O)C1(F)F` [Compound 187, (R)-4-bromo-2,2-difluoro-5-((5-fluoropyridin-3-yl)oxy)-3-hydroxy-2,3-dihydrobenzo[b]thiophene 1,1-dioxide] was run?
Answer: 305 nM

Question: What about the EC50 (786-O-Hif-Luc cells; [7]) of the same compound?
Answer: 126 nM

Question: With `Cc1cc(Oc2cc(F)cc(C#N)c2)c2c(c1S(C)(=O)=O)C(O)C(F)(F)C2` (centres unmarked) [Compound 12, 3-((2,2-Difluoro-1-hydroxy-6-methyl-7-(methylsulfonyl)-2,3-dihydro-1H-inden-4-yl)oxy)-5-fluorobenzonitrile] as the compound, how does the IC50 [1, 3] read?
Answer: 800 nM

Question: What about the EC50 (786-O-Hif-Luc cells; [7]) of the same compound?
Answer: 775 nM

Question: `N#Cc1cccc(Oc2ccc3c(c2Br)[C@@H](O)C(F)(F)S3(=O)=O)c1` [Compound 194, (R)-3-((4-bromo-2,2-difluoro-3-hydroxy-1,1-dioxido-2,3-dihydrobenzo[b]thiophen-5-yl)oxy)benzonitrile] was tested. Which IC50 [1, 3] did it give?
Answer: 17 nM

Question: What about the EC50 (786-O-Hif-Luc cells; [7]) of the same compound?
Answer: 32 nM

Question: Which IC50 [1, 3] does the source give for `N#CN=S1(=O)c2ccc(Oc3cc(F)cc(F)c3)c(C(F)F)c2C(O)C1(F)F` (centres unmarked) [Compound 161, N-(4-(Difluoromethyl)-5-(3,5-difluorophenoxy)-2,2-difluoro-3-hydroxy-1-oxido-2,3-dihydro-1λ^4-benzo[b]thiophen-1-ylidene)cyanamide] here?
Answer: 20 nM

Question: What about the EC50 (786-O-Hif-Luc cells; [7]) of the same compound?
Answer: 1500 nM

Question: How did the IC50 [1, 6] turn out when `O=S1(=O)c2ccc(Oc3cc(F)cc(Cl)c3)c(Br)c2[C@H](O)C1(F)F` [Compound 169, (3S)-4-Bromo-5-(3-chloro-5-fluoro-phenoxy)-2,2-difluoro-1,1-dioxo-3H-benzothiophen-3-ol] was run?
Answer: 60 nM

Question: What about the EC50 (786-O-Hif-Luc cells; [5]) of the same compound?
Answer: 172 nM

Question: `N#Cc1cc(F)cc(Oc2ccc(S(=N)(=O)C(F)(F)F)c3c2CC(F)(F)[C@H]3O)c1` (single isomer, unassigned) [Compound 69] was tested. Which IC50 [1, 3] did it give?
Answer: < 5 nM

Question: And the EC50 (786-0 cells; [8])?
Answer: 20 nM

Question: What does the source list for `O=S(=O)(c1ccc(Oc2ccc(F)c3[nH]ncc23)c2c1[C@H](O)C(F)(F)C2)C(F)(F)F` [Compound 30, (S)-2,2-difluoro-4-((7-fluoro-1H-indazol-4-yl)oxy)-7-((trifluoromethyl)sulfonyl)-2,3-dihydro-1H-inden-1-ol]?
Answer: EC50 (786-0 cells; [8]): 54 nM; EC50 (786-O-Hif-Luc cells; [7]): 30 nM

Question: Which IC50 [1, 3] does the source give for `COc1cc(F)cc(Oc2ccc3c(c2C#N)[C@@H](O)C(F)(F)S3(=O)=O)c1` [Compound 191, (R)-2,2-difluoro-5-(3-fluoro-5-methoxyphenoxy)-3-hydroxy-2,3-dihydrobenzo[b]thiophene-4-carbonitrile 1,1-dioxide] here?
Answer: 66 nM

Question: And the EC50 (786-O-Hif-Luc cells; [7])?
Answer: 15000 nM

Question: How did the IC50 [1, 3] turn out when `O=S1(=O)c2ccc(OC3CCOCC3)c(C(F)F)c2C(O)C1(F)F` (centres unmarked) [Compound 164, 4-(Difluoromethyl)-2,2-difluoro-3-hydroxy-5-((tetrahydro-2H-pyran-4-yl)oxy)-2,3-dihydrobenzo[b]thiophene 1,1-dioxide] was run?
Answer: 1900 nM

Question: What about the EC50 (786-O-Hif-Luc cells; [7]) of the same compound?
Answer: 1540 nM

Question: Which IC50 [1, 3] does the source give for `O=S1(=O)CC(O)c2c1ccc(Oc1cc(F)cc(F)c1)c2C(F)F` (centres unmarked) [Compound 134, 4-(Difluoromethyl)-5-(3,5-difluorophenoxy)-3-hydroxy-2,3-dihydrobenzo[b]thiophene 1,1-dioxide] here?
Answer: 77 nM

Question: And the EC50 (786-O-Hif-Luc cells; [7])?
Answer: 718 nM

Question: What does the source list for `N#CN=S1(=O)c2ccc(Oc3cc(F)cc(F)c3)c(Cl)c2[C@@H](O)C1(F)F` (stereo partly drawn) [Compound 176, N-((3R)-4-Chloro-5-(3,5-difluorophenoxy)-2,2-difluoro-3-hydroxy-1-oxido-2,3-dihydro-1λ^4-benzo[b]thiophen-1-ylidene)cyanamide]?
Answer: IC50 [1, 3]: 174 nM; EC50 (786-O-Hif-Luc cells; [7]): 2160 nM

Question: How did the IC50 [1, 3] turn out when `O=S1(=O)CC(O)c2c1ccc(Oc1cc(F)cc(Cl)c1)c2C(F)F` (centres unmarked) [Compound 125, 5-(3-Chloro-5-fluorophenoxy)-4-(difluoromethyl)-3-hydroxy-2,3-dihydrobenzo[b]thiophene 1,1-dioxide] was run?
Answer: 100 nM

Question: What about the EC50 (786-O-Hif-Luc cells; [7]) of the same compound?
Answer: 725 nM

Question: How did the IC50 [1, 3] turn out when `CS(=O)(=O)c1ccc(Oc2cc(F)cc(C#N)c2)c2c1C(=O)C(F)(Cl)C2` (centres unmarked) [Compound 33, 3-((2-chloro-2-fluoro-7-(methylsulfonyl)-1-oxo-2,3-dihydro-1H-inden-4-yl)oxy)-5-fluorobenzonitrile] was run?
Answer: 310 nM

Question: What about the EC50 (786-O-Hif-Luc cells; [7]) of the same compound?
Answer: 19400 nM

Question: With `N#Cc1ccc(Oc2cc(F)cc(F)c2)c2c1[C@H](O)C(F)(F)C2` [Compound 4, (S)-7-(3,5-Difluorophenoxy)-2,2-difluoro-3-hydroxy-2,3-dihydro-1H-indene-4-carbonitrile] as the compound, how does the EC50 (786-0 cells; [2]) read?
Answer: 217 nM

Question: How did the IC50 [1, 3] turn out when `CS(=O)(=O)c1ccc(Oc2cc(F)cc(C#N)c2)c2c1[C@H](O)C(F)(Cl)C2` (stereo partly drawn) [Compound 34, 3-(((1S)-2-chloro-2-fluoro-1-hydroxy-7-(methylsulfonyl)-2,3-dihydro-1H-inden-4-yl)oxy)-5-fluorobenzonitrile] was run?
Answer: 97 nM

Question: What about the EC50 (786-O-Hif-Luc cells; [7]) of the same compound?
Answer: 100 nM

Question: What does the source list for `CS(=O)(=NC#N)c1ccc(Oc2cc(F)cc(C#N)c2)c2c1[C@H](O)C(F)(F)[C@@H]2F` (single isomer, unassigned) [Compound 81]?
Answer: IC50 [1, 3]: < 5 nM; EC50 (786-0 cells; [4]): 14 nM

Question: With `COCCNC1c2c(ccc(Oc3cc(F)cc(F)c3)c2Br)S(=O)(=O)C1(F)F` (centres unmarked) [Compound 143, 4-Bromo-5-(3,5-difluorophenoxy)-2,2-difluoro-3-((2-methoxyethyl)amino)-2,3-dihydrobenzo[b]thiophene 1,1-dioxide] as the compound, how does the IC50 [1, 3] read?
Answer: < 5 nM

Question: What about the EC50 (786-O-Hif-Luc cells; [7]) of the same compound?
Answer: 1780 nM

Question: `Cc1cncc(Oc2ccc(S(C)(=O)=O)c3c2CC(F)(F)[C@H]3O)n1` [Compound 11, (S)-2,2-Difluoro-4-((6-methylpyrazin-2-yl)oxy)-7-(methylsulfonyl)-2,3-dihydro-1H-inden-1-ol] was tested. Which IC50 [1, 3] did it give?
Answer: < 5 nM

Question: What about the EC50 (786-O-Hif-Luc cells; [7]) of the same compound?
Answer: 13500 nM

Question: With `C[S+]([O-])c1ccc(Oc2cc(F)cc(C#N)c2)c2c1[C@H](O)C(F)(F)C2` (stereo partly drawn) [Compound 36, 3-[(1S)-2,2-Difluoro-1-hydroxy-7-methylsulfinyl-indan-4-yl]oxy-5-fluoro-benzonitrile] as the compound, how does the IC50 [1, 3] read?
Answer: 2000 nM

Question: And the EC50 (786-O-Hif-Luc cells; [7])?
Answer: 2280 nM

Question: How did the IC50 [1, 3] turn out when `O=S1(=O)c2ccc(Oc3cccc4sccc34)c(C(F)F)c2C(O)C1(F)F` (centres unmarked) [Compound 204, 5-(Benzo[b]thiophen-4-yloxy)-4-(difluoromethyl)-2,2-difluoro-3-hydroxy-2,3-dihydrobenzo[b]thiophene 1,1-dioxide] was run?
Answer: 11 nM

Question: And the EC50 (786-O-Hif-Luc cells; [7])?
Answer: 455 nM

Question: For `CS(=O)(=O)c1ccc(Oc2cc(F)cc(C#N)c2)c2c1[C@H](O)C(F)(F)[C@H]2F` [Compound 57, 3-fluoro-5-[(1S,3S)-2,2,3-trifluoro-1-hydroxy-7-methylsulfonyl-indan-4-yl]oxy-benzonitrile], which IC50 [1, 3] is on record?
Answer: 720 nM

Question: And the EC50 (786-O-Hif-Luc cells; 24 h)?
Answer: 779 nM

Question: For `N#Cc1cc(F)cc(Oc2ccc3c(c2C#N)[C@@H](O)CS3(=O)=O)c1` [Compound 180, (R)-5-(3-Cyano-5-fluorophenoxy)-3-hydroxy-2,3-dihydrobenzo[b]thiophene-4-carbonitrile 1,1-dioxide], which IC50 [1, 3] is on record?
Answer: 12900 nM

Question: And the EC50 (786-O-Hif-Luc cells; [7])?
Answer: 400 nM

Question: Which IC50 [1, 3] does the source give for `NC1CS(=O)(=O)c2ccc(Oc3cc(F)cc(Cl)c3)c(C(F)F)c21` (centres unmarked) [Compound 127, 3-Amino-5-(3-chloro-5-fluorophenoxy)-4-(difluoromethyl)-2,3-dihydrobenzo[b]thiophene 1,1-dioxide] here?
Answer: 7880 nM

Question: And the EC50 (786-O-Hif-Luc cells; [7])?
Answer: 6890 nM

From patent publication US10098878B2, “HIF-2α inhibitors for treating iron overload disorders” (The Board of Regents of the University of Texas System, priority 2014, dated 2018)
